Columns and labels:
P2Y10 = P2Y10 (Homo sapiens, UniProt O00398); assay: LPA receptor-mediated Ca2+ mobilization assay, P2Y10; assay type: cell-based; details: for inhibition of P2Y10 Ca2+ response: 10 μM, ~EC75 LPA 18:1; for P2Y10 Imax (%): inhibition by 10 μM compound of ~EC75 LPA 18:1 Ca2+ response; for EC50: agonist, Ca2+ mobilization
Procedure: (§1) Similarity searches were performed separately using each fingerprint to quantitate similarity. Hits meeting the 80% similarity threshold from each search were ranked based on the Tanimoto coefficient measure of similarity to a target molecule NSC12404, and the top 75 unique hits from each fingerprint search were selected for further analysis. The 225 compounds selected for further analysis were clustered based on Tanimoto coefficients calculated using Molecular ACCess System-key fingerprints (MACCS keys) and evaluated using the diversity subset function implemented in MOE. This selected a diverse subset of 27 compounds for biological evaluation by choosing the middle compounds in each cluster. These 27 compounds were tested in Ca^2+ mobilization assays at a concentration of 10 μM using stable cell lines individually expressing LPA2 and also in vector-transfected control cells. Hits activating LPA2 were further tested using cells expressing the other established and putative LPA GPCRs. Experimental testing of the selected compounds identified the three new selective LPA2 agonists: GRI977143, H2L5547924, and H2L5828102. […] They arbitrarily selected GRI977143 for further characterization in cell-based assays.
(§2) J Biol Chem (2009) 284(25): 17304-17319). […] The cells were loaded with Fura-2-acetoxymethyl esther (Fura-2/AM) in Krebs buffer containing 0.01% pluronic acid for 30 min and rinsed with Krebs buffer before measuring Ca^2+ mobilization. The ratio of peak emissions at 510 nm after 2 min of ligand addition was determined for excitation wavelengths of 340 nm/380 nm. All samples were run in quadruplicate. […] The half maximally effective concentration (EC50), and inhibitory constant (Ki) values were calculated by fitting a sigmoid function to dose-response data points using KaleidaGraph software (version 4.1, Synergy Software; […]).
(§3) Mouse embryonic fibroblast (MEF) cells were isolated from E13.5 LPA1&2 double knockout (DKO) embryos. MEFs were transduced with empty vector or LPA2-containing lentiviruses and selected with 1.5 μg/ml puromycin. Cells were maintained in Dulbecco's modified Eagle medium (DMEM) supplemented with 10% (V/V) fetal bovine serum (FBS), 2 mM L-glutamine, 100 U/mL penicillin, and 100 μg/mL streptomycin. Serum-free medium contained 0.1% (W/V) BSA in DMEM. The rat intestinal epithelial cell line 6 (IEC-6) was obtained from the American Type Culture Collection (Rockville, Md.) at passage 13; passages 16-21 were used in all experiments. IEC-6 cells were maintained in a humidified 37° C. incubator in an atmosphere of 90% air and 10% CO2. Growth medium consisted of DMEM supplemented with 5% heat inactivated FBS, 10 μg/mL insulin, and 50 μg/mL gentamycin. The composition of the serum-starvation medium was the same as that of the full growth medium except that it contained no FBS. The McArdle rat hepatoma cell line (RH7777) stably expressing LPA2 receptors was a gift from Dr. Fumikazu Okajima (Gunma University, Maebashi, Japan). RH7777 cells stably expressing LPA1 or LPA3 receptors were generated in-house and had been characterized earlier. Wild type and LPA receptor (LPAR) stably transfected RH7777 cells were grown in DMEM supplemented with 10% FBS and 2 mM L-glutamine in the presence of 250 μg/ml G418. Chinese hamster ovary (CHO) cells stably expressing either vector or LPA4 receptor were a kind gift from Dr. Takao Shimizu (Tokyo University; Tokyo, Japan). Cells were cultured in Ham's F12 medium containing 10% FBS, 2 mM L-glutamine, and 350 μg/ml G418. Rat neuroblastoma cells (B103) were transduced with the lentivirus harboring wild type of FLAG-LPA5 and selected with puromycin to establish the stable cell lines. The stable cells were maintained in DMEM supplemented with 10% FBS and 0.4 μg/ml puromycin. GPR87- and P2Y10-expressing CHO cells and vector-transfected control cells were a gift from Dr. Norihisha Fujita (Ritsumeikan University; Shiga, Japan). […]

LPA1 = target: T1, LPA1 (Homo sapiens, UniProt Q92633); assay: LPA receptor-mediated Ca2+ mobilization assay, LPA1; assay type: cell-based; details: for inhibition of LPA1 Ca2+ response: 10 μM, ~EC75 LPA 18:1; for LPA1 Imax (%): inhibition by 10 μM compound of ~EC75 LPA 18:1 Ca2+ response; for EC50: agonist, Ca2+ mobilization
T1 construct: expressed in transfected cells
Procedure: as §1, §2, §3

IEC-6 cells = assay: TNF-α/CHX-induced apoptosis, DNA fragmentation; assay type: cell-based, rat; details: OTP 10 μM, LPA 1 μM, GRI977143 10 μM
Procedure: Confluent serum-starved IEC-6 cells were treated with or without TNF-α (10 ng/ml)/cycloheximide (CHX) (20 μg/ml) in the presence of OTP (10 μM), GRI977143 (10 μM), or LPA (1 μM) for 3 h. Cells were washed twice with PBS and the quantitative DNA fragmentation assay was carried out as described previously (Valentine et al., (S)—FTY720-vinylphosphonate, an analogue of the immunosuppressive agent FTY720, is a pan-antagonist of sphingosine 1-phosphate GPCR signaling and inhibits autotaxin activity. Cell Signal (2010) 22(10): 1543-1553).
(§4) Apoptotically-challenged cells were washed twice with PBS, and a quantitative DNA fragmentation assay was carried out using a Cell Death Detection ELISA PLUS kit (Roche Diagnostics, Penzberg, Germany) and normalized to protein concentration using the BCA Protein Assay Kit (Thermo Fisher Scientific, Inc.; Rockford, Ill.) as described previously (Valentine et al., 2010). Aliquots of nuclei-free cell lysate were placed in streptavidin-coated wells and incubated with anti-histone-biotin antibody and anti-DNA peroxidase-conjugated antibody for 2 h at room temperature. After the incubation, the sample was removed, and the wells were washed and incubated with 100 μl 2,2′-azino-di[3-ethylbenzthiazolin-sulfonate substrate at room temperature before the absorbance was read at 405 nm. Results were expressed as absorbance at 405 nm/min/mg protein as detailed in our previous report (Ray et al., Mdm2 inhibition induces apoptosis in p53 deficient human colon cancer cells by activating p73- and E2F1-mediated expression of PUMA and Siva-1. Apoptosis (2011) 16(1): 35-44).

[1] = test system: vector- and LPA2-transduced MEF cells; assay: Adriamycin-induced apoptosis, DNA fragmentation ELISA; assay type: cell-based, mouse; details: GRI977143 10 μM
Procedure: Experiments were performed on vector- and LPA2-transduced MEF cells. To measure caspase 3, 7, 8, or 9 activity and DNA fragmentation, cells were plated in 48-well plates (2×10^4 cells/well). To detect PARP-1 cleavage and Bax translocation, 1.5×10^6 cells were plated in 10-cm dishes and cultured overnight in full growth medium. The next morning, the growth medium was replaced by serum-starvation medium and cells were pretreated for 1 h with LPA (1-10 μM), OTP (1-10 μM), GRI977143 (1-10 μM), or vehicle. Caspase activity, DNA fragmentation, PARP-1 cleavage, and Bax translocation were measured 5 h after incubation with 1.7 μM Adriamycin or 24 h after serum withdrawal.
as §4

[2] = LPA2-transduced MEF, LPA and OTP 3 μM

T1 sequence (Q92633 whole entry, species assumed): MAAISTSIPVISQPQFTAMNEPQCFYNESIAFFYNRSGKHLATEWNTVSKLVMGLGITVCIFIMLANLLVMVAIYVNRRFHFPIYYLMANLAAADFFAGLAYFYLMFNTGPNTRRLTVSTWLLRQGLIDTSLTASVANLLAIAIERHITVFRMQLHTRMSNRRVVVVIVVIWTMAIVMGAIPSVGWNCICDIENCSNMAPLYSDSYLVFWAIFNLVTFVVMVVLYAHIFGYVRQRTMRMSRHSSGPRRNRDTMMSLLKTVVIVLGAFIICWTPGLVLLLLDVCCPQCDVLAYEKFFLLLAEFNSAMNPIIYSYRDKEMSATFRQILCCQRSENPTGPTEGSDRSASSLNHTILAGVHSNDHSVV
Chain of P2Y10 (O00398 whole entry): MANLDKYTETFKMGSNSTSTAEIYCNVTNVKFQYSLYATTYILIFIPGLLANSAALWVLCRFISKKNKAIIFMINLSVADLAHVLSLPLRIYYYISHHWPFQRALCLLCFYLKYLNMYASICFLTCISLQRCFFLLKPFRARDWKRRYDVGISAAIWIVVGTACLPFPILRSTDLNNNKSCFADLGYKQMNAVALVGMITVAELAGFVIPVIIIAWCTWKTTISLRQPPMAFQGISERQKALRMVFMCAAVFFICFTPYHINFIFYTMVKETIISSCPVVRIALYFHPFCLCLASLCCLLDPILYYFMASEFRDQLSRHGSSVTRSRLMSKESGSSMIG

| Compound | inhibition of P2Y10 Ca2+ response (P2Y10) | P2Y10 Imax (%) (P2Y10) | inhibition of LPA1 Ca2+ response (LPA1) | LPA1 Imax (%) (LPA1) | EC50 (P2Y10) | DNA fragmentation induced by TNF-α/CHX (IEC-6 cells) | reduction of DNA fragmentation [1, 2] | reduction of DNA fragmentation ([1]; vector-transduced MEF) | EC50 (LPA1) |
| --- | --- | --- | --- | --- | --- | --- | --- | --- | --- |
| O=C(O)c1cc(Cl)c(Cl)cc1C(=O)Nc1ccc2c(c1)C(=O)c1ccccc1-2 [Compound H2L5547924] | partially inhibited | 34% | partially inhibited | 21% | – | – | – | – | – |
| O=C(O)c1ccccc1C(=O)Nc1ccc2c(c1)C(=O)c1ccccc1C2=O [Compound H2L5828102] | partially inhibited | 39% | partially inhibited | 29% | – | – | – | – | – |
| O=C(O)c1ccccc1SCCCN1C(=O)c2cccc3cccc(c23)C1=O [GRI977143] | – | – | – | – | > 10000 nM | significantly reduced | 41±2% | 7±1% | – |
| CCCCCCCC/C=C\CCCCCCCC(=O)OC[C@@H](O)COP(=O)(O)O [LPA 18:1, Lysophosphatidic acid (18:1)] | – | – | – | – | 29 nM | significantly reduced | 35±4% | – | 130 nM |
| O=C(O)c1ccccc1C(=O)Nc1ccc2c(c1)C(=O)c1ccccc1-2 [NSC12404] | – | – | – | – | > 10000 nM | – | – | – | > 10000 nM |
| octadecenyl thiophosphate [OTP] | – | – | – | – | – | completely blocked | 32±1% | – | 651 nM |

— patent publication US9056835B2, “LPA2 receptor-specific benzoic acid derivatives” (University of Tennessee Research Foundation, priority 2012, dated 2015)
